In patent publication EP1043979B1, “COMPOSITIONS FOR THE TRANSDERMAL AND DERMAL ADMINISTRATION OF BIOLOGICALLY ACTIVE AGENTS” (PULITZER ITALIANA S.r.l., priority 1997, dated 1999):

Assay: In vitro transdermal flux of nitroglycerin from TTS patches, Franz diffusion cells, HPLC of receiving medium
Type: in vitro ADME, human
Excerpt: The transdermal delivery devices employed in this example and in the following ones were produced according to the following procedure. A matrix layer containing the active substance, the adhesive and, when present, the permeation enhancer and the absorption assistant was obtained by uniformly spreading a solution of the components, with the proper concentration, viscosity and quantitative composition, on the silanised or fluorinated surface of a polyester protective layer. After evaporating the solvent at 70-80°C for 15-20 min. a final layer of a homogeneous thickness was obtained. weighing about 10 mg/cm^2 and having the desired composition. The composition had been preliminarily fixed taking into account the amount of solvent to be removed. During the above operation the adhesive employed underwent the required cross-linking reaction. […]
On the transdermal devices thus produced in vitro release tests were carried out, employing methods well known to this aim (Merrit e. Cooper, J. Controlled Release, 1984, 1, 161), that have been further developed more recently (Reifenrath et al., J. Pharm. Sci., 80, 1991, 526). […] The tested patches were applied to the exposed side of the skin, and the transdermal flux was measured by analysing (by HPLC) the receiving medium. […]

Molecule | activity as enhancer (N-(2-hydroxyethyl)acetamide alone, 3-7% in nitroglycerin TTS (Table 2)) | transdermal permeation
CC(=O)NCCO [N-(2-hydroxyethyl)acetamide] | does not possess any significant activity as enhancer | 
sorbitan monooleate |  | relative reduction of the transdermal permeation
